In patent US20060217418A1, “Substituted alkyl amido piperidines” (priority 2001, published 2006) one finds Ki data, which are given here for 46 molecules.

T1 sequence (P97639 whole entry): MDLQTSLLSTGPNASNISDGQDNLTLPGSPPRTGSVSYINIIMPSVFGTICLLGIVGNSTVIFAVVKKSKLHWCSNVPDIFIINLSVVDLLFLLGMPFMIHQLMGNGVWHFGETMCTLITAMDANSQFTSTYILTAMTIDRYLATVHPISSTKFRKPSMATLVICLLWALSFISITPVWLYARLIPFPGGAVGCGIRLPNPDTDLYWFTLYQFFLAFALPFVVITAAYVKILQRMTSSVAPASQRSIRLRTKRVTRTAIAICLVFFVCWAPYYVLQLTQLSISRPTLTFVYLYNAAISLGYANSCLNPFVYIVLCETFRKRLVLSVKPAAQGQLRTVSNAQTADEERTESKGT

This assay has as its target T1, rat MCH1 receptor (Rattus norvegicus, UniProt P97639).
T1 construct: operatively linked to DNA encoding the rat MCH1 receptor so as to permit expression thereof; expressed in transfected cells; host or cells: Human embryonic kidney Peak rapid 293 (Peakr293) cells, transient calcium phosphate transfection, membranes
Kind of assay: Radioligand binding assay at cloned rat MCH1 receptor ([3H]Compound A). The following applies: cloned rat MCH1, Peakr293 cell membranes, 0.08 nM [3H]Compound A, 25° C., 90 minutes; read-out: Ki(MCH-1).
What is called Ki is a measure of affinity in units of concentration, obtained from inhibition or displacement. With `CC(=O)Nc1cccc(C2CCN(CCCNC(=O)C3(c4ccc(F)cc4)CCCC3)CC2)c1` [Example 72, N-(3-{4-[3-(ACETYLAMINO)PHENYL]-1-PIPERIDINYL}PROPYL)-1-(4-FLUOROPHENYL) CYCLOPENTANECARBOXAMIDE], the Ki amounted to 52.3 nM.

Turning to `CC(C)C(=O)Nc1cccc(C2CCN(CCCNC(=O)C3(c4ccc(Cl)cc4)CCC3)CC2)n1` [Example 73, 1-(4-CHLOROPHENYL)-N-(3-{4-[6-(ISOBUTYRYLAMINO)-2-PYRIDINYL]-1-PIPERIDINYL} PROPYL)CYCLOBUTANECARBOXAMIDE], the inhibition constant Ki amounted to 32.4 nM.

Turning to `CC(=O)Nc1cccc(C2CCN(CCCNC(=O)C3(c4ccc(Cl)cc4)CCC3)CC2)c1` [Example 74, N-(3-{4-[3-(ACETYLAMINO)PHENYL]-1-PIPERIDINYL}PROPYL)-1-(4-CHLOROPHENYL) CYCLOBUTANECARBOXAMIDE], the Ki is 34.3 nM.

Consider `CC(=O)Nc1cccc(C2CCN(CCCNC(=O)C3(c4ccc(Cl)cc4)CCCCC3)CC2)c1` [Example 75, N-(3-{4-[3-(ACETYLAMINO)PHENYL]-1-PIPERIDINYL}PROPYL)-1-(4-CHLOROPHENYL) CYCLOHEXANECARBOXAMIDE], for which the Ki was determined as 4.7 nM.

Take `CC(C)C(=O)Nc1cccc(C2CCN(CCCNC(=O)C3(c4ccc(Cl)cc4)CC3)CC2)n1` [Example 76, 1-(4-CHLOROPHENYL)-N-(3-{4-[6-(ISOBUTYRYLAMINO)-2-PYRIDINYL]-1-PIPERIDINYL} PROPYL)CYCLOPROPANECARBOXAMIDE]: the Ki was 48 nM.

Turning to `CCCC(=O)Nc1cccc(C2CCN(CCCNC(=O)C(C)c3ccc(Cl)cc3)CC2)c1` (stereo not shown) [Example 77, N-{3-[1-(3-{[2-(4-CHLOROPHENYL)PROPANOYL]AMINO}PROPYL)-4-PIPERIDINYL] PHENYL}BUTANAMIDE], the Ki came out at 30.7 nM.

On to `CC(=O)Nc1cccc(C2CCN(CCCNC(=O)C3(c4ccc(Cl)cc4)CCCC3)CC2)c1` [Example 78, N-(3-{4-[3-(ACETYLAMINO)PHENYL]-1-PIPERIDINYL}PROPYL)-1-(4-CHLOROPHENYL) CYCLOPENTANECARBOXAMIDE], for which the Ki amounted to 6.7 nM.

As to `CC(=O)Nc1cccc(C2CCN(CCCNC(=O)C(C)(C)c3ccc(Cl)cc3)CC2)c1` [Example 79, N-(3-{4-[3-(ACETYLAMINO)PHENYL]-1-PIPERIDINYL}PROPYL)-2-(4-CHLORO PHENYL)-2-METHYLPROPANAMIDE], the Ki amounted to 5.9 nM.

Consider `CCCC(=O)Nc1cccc(C2CCN(CCCNC(=O)C(C)(C)c3ccc(Cl)cc3)CC2)c1` [Example 80], for which the Ki is 7.7 nM.

With `Cc1ccc(NC(=O)C(C)C)cc1C1CCN(CCCNC(=O)C2(c3ccc(Cl)cc3)CCCC2)CC1` [Example 81], the Ki was 3.2 nM.

As to `CC(C)C(=O)Nc1cccc(C2CCN(CCCNC(=O)C(c3ccccc3)(c3ccccc3)c3ccccc3)CC2)n1` [Example 82], the Ki was found to be 8.6 nM.

In the case of `CC(C)C(=O)Nc1cccc(C2CCN(CCCNC(=O)C(C)(c3ccccc3)c3ccccc3)CC2)n1` [Example 83], the Ki was found to be 10.3 nM.

Consider `CC(C)C(=O)Nc1cccc(C2CCN(CCCNC(=O)C3(c4ccc(Cl)cc4)CCCC3)CC2)n1` [Example 84], for which the Ki was 12.6 nM.

As for `Cc1ccc(NC(=O)C(C)C)cc1C1CCN(CCCNC(=O)C2(c3ccc(Cl)cc3)CCCCC2)CC1` [Example 85], the Ki is 4.6 nM.

In the case of `Cc1ccc(NC(=O)C(C)C)cc1C1CCN(CCCNC(=O)C2(c3ccc(Cl)cc3)CCC2)CC1` [Example 86], the Ki was determined as 3.2 nM.

As for `CCCC(=O)Nc1cccc(C2CCN(CCCNC(=O)C3(c4ccc(F)cc4)CCCCC3)CC2)c1` [Example 87, N-(3-{4-[3-(BUTYRYLAMINO)PHENYL]-1-PIPERIDINYL}PROPYL)-1-(4-FLUOROPHENYL) CYCLOHEXANECARBOXAMIDE], the Ki worked out at 6.4 nM.

In the case of `CC(C)C(=O)Nc1cccc(C2CCN(CCCNC(=O)C(C)(C)c3ccc(Cl)cc3)CC2)n1` [Example 88], the Ki came out at 23 nM.

Regarding `Cc1ccc(NC(=O)C(C)C)cc1C1CCN(CCCNC(=O)C2(c3ccc(Cl)cc3)CC2)CC1` [Example 89], the Ki came out at 10.8 nM.

Regarding `CC(C)C(=O)Nc1cccc(C2CCN(CCCNC(=O)C(C)c3ccc(Cl)cc3)CC2)n1` (stereo not shown) [Example 90, 2-(4-CHLOROPHENYL)-N-(3-{4-[6-(ISOBUTYRYLAMINO)-2-PYRIDINYL]-1-PIPERIDINYL} PROPYL)PROPANAMIDE], the Ki stood at 52.2 nM.

On to `Cc1ccc(NC(=O)C(C)C)cc1C1CCN(CCCNC(=O)C(C)(C)c2ccc(Cl)cc2)CC1` [Example 91], for which the Ki was found to be 2.9 nM.

On to `Cc1ccc(NC(=O)C(C)C)cc1C1CCN(CCCNC(=O)C2(c3ccc(F)cc3)CCCCC2)CC1` [Example 92], for which the Ki is 2.6 nM.

As for `Cc1ccc(NC(=O)C(C)C)cc1C1CCN(CCCNC(=O)C2(c3ccc(F)cc3)CCCC2)CC1` [Example 93], the Ki was determined as 4.9 nM.

Turning to `Cc1ccc(NC(=O)C(C)C)cc1C1CCN(CCCNC(=O)C(c2ccccc2)(c2ccccc2)c2ccccc2)CC1` [Example 94], the Ki amounted to 3.1 nM.

As to `CC(=O)Nc1cccc(C2CCN(CCCNC(=O)C(C)c3ccc(Cl)cc3)CC2)c1` (stereo not shown) [Example 95, N-(3-{4-[3-(ACETYLAMINO)PHENYL]-1-PIPERIDINYL}PROPYL)-2-(4-CHLOROPHENYL) PROPANAMIDE], the Ki worked out at 23.5 nM.

With `Cc1ccc(NC(=O)C(C)C)cc1C1CCN(CCCNC(=O)C(C)(c2ccccc2)c2ccccc2)CC1` [Example 96], the Ki turned out to be 2.6 nM.

As for `CCCC(=O)Nc1cccc(C2CCN(CCCNC(=O)C(c3ccccc3)(c3ccccc3)c3ccccc3)CC2)c1` [Example 97], the Ki turned out to be 3.6 nM.

Take `CCCC(=O)Nc1cccc(C2CCN(CCCNC(=O)C(C)(c3ccccc3)c3ccccc3)CC2)c1` [Example 98, N-[3-(1-{3-[(2,2-DIPHENYLPROPANOYL)AMINO]PROPYL}-4-PIPERIDINYL)PHENYL] BUTANAMIDE]: the Ki was 4.3 nM.

For `CCCC(=O)Nc1cccc(C2CCN(CCCNC(=O)C3(c4ccc(Cl)cc4)CCCCC3)CC2)c1` [Example 99, N-(3-{4-[3-(BUTYRYLAMINO)PHENYL]-1-PIPERIDINYL}PROPYL)-1-(4-CHLOROPHENYL) CYCLOHEXANECARBOXAMIDE], the Ki worked out at 2.9 nM.

As to `Cc1ccc(NC(=O)C(C)C)cc1C1CCN(CCCNC(=O)C(C)c2ccc(Cl)cc2)CC1` (stereo not shown) [Example 100], the Ki is 5 nM.

As for `CCCC(=O)Nc1cccc(C2CCN(CCCNC(=O)C3(c4ccc(F)cc4)CCCC3)CC2)c1` [Example 101, N-(3-{4-[3-(BUTYRYLAMINO)PHENYL]-1-PIPERIDINYL}PROPYL)-1-(4-FLUOROPHENYL) CYCLOPENTANECARBOXAMIDE], the Ki was found to be 11.2 nM.

In the case of `CCCC(=O)Nc1cccc(C2CCN(CCCNC(=O)C3(c4ccc(Cl)cc4)CCCC3)CC2)c1` [Example 102, N-(3-{4-[3-(BUTYRYLAMINO)PHENYL]-1-PIPERIDINYL}PROPYL)-1-(4-CHLOROPHENYL) CYCLOPENTANECARBOXAMIDE], the Ki was determined as 7.9 nM.

For the molecule `CC(=O)Nc1cccc(C2CCN(CCCNC(=O)C(C)(c3ccccc3)c3ccccc3)CC2)c1` [Example 103, N-(3-{4-[3-(ACETYLAMINO)PHENYL]-1-PIPERIDINYL}PROPYL)-2,2-DIPHENYL PROPANAMIDE], the Ki was found to be 8 nM.

With `CCCC(=O)Nc1cc(C2CCN(CCCNC(=O)C(c3ccc(F)cc3)c3ccc(F)cc3)CC2)ccc1F` [Example 104], the Ki is 0.9 nM.

For `CC(=O)Nc1cccc(C2CCN(CCCNC(=O)C(c3ccccc3)(c3ccccc3)c3ccccc3)CC2)c1` [Example 105, N-(3-{4-[3-(ACETYLAMINO)PHENYL]-1-PIPERIDINYL}PROPYL)-2,2,2-TRIPHENYL ACETAMIDE], the Ki amounted to 2.8 nM.

On to `CCCC(=O)Nc1cccc(C2CCN(CCCNC(=O)C3(c4ccc(Cl)cc4)CCC3)CC2)c1` [Example 106, N-(3-{4-[3-(BUTYRYLAMINO)PHENYL]-1-PIPERIDINYL}PROPYL)-1-(4-CHLOROPHENYL) CYCLOBUTANECARBOXAMIDE], for which the Ki came to 19 nM.

Regarding `CCCC(=O)Nc1cc(C2CCN(CCCNC(=O)C3(c4ccc(F)cc4)CCCC3)CC2)ccc1F` [Example 107], the Ki amounted to 101 nM.

Consider `CCCC(=O)Nc1cc(C2CCN(CCCNC(=O)C(c3ccc(Cl)cc3)c3ccc(Cl)cc3)CC2)ccc1F` [Example 108], for which the Ki was 1.9 nM.

In the case of `CCCC(=O)Nc1cc(C2CCN(CCCNC(=O)C(c3ccc(C)cc3)c3ccc(C)cc3)CC2)ccc1F` [Example 109], the Ki amounted to 4.7 nM.

Turning to `CCCC(=O)Nc1cc(C2CCN(CCCNC(=O)C(C)(C)c3ccc(Cl)cc3)CC2)ccc1F` [Example 110], the Ki amounted to 50.4 nM.

`Cc1ccc(C(C(=O)NCCCN2CCC(c3cccc(NC(=O)C4CC4)c3)CC2)c2ccc(C)cc2)cc1` [Example 111, N-{3-[1-(3-{[2,2-BIS(4-METHYLPHENYL)ACETYL]AMINO}PROPYL)-4-PIPERIDINYL] PHENYL}CYCLOPROPANECARBOXAMIDE]: the Ki stood at 1.2 nM.

As to `O=C(Nc1cccc(C2CCN(CCCNC(=O)C3(c4ccc(Cl)cc4)CCCC3)CC2)c1)C1CC1` [Example 112], the Ki was determined as 3.2 nM.

Regarding `O=C(Nc1cccc(C2CCN(CCCNC(=O)C(c3ccc(Cl)cc3)c3ccc(Cl)cc3)CC2)c1)C1CC1` [Example 113, N-{3-[1-(3-{[2,2-BIS(4-CHLOROPHENYL)ACETYL]AMINO}PROPYL)-4-PIPERIDINYL] PHENYL}CYCLOPROPANECARBOXAMIDE], the Ki stood at 0.8 nM.

Regarding `O=C(Nc1cccc(C2CCN(CCCNC(=O)C(c3ccccc3)(c3ccccc3)c3ccccc3)CC2)c1)C1CC1` [Example 114], the inhibitory constant (Ki) was found to be 4 nM.

Turning to `CC(C)(C(=O)NCCCN1CCC(c2cccc(NC(=O)C3CC3)c2)CC1)c1ccc(Cl)cc1` [Example 115], the Ki stood at 6.9 nM.

Take `CC(C(=O)NCCCN1CCC(c2cccc(NC(=O)C3CC3)c2)CC1)c1ccc(Cl)cc1` (stereo not shown) [Example 116, N-{3-[1-(3-{[2-(4-CHLOROPHENYL)PROPANOYL]AMINO}PROPYL)-4-PIPERIDINYL] PHENYL}CYCLOPROPANECARBOXAMIDE]: the Ki is 18.9 nM.

As for `O=C(Nc1cccc(C2CCN(CCCNC(=O)C3(c4ccc(Cl)cc4Cl)CC3)CC2)c1)C1CC1` [Example 117, N-[3-(4-{3-[(CYCLOPROPYLCARBONYL)AMINO]PHENYL}-1-PIPERIDINYL) PROPYL]-1-(2,4-DICHLOROPHENYL)CYCLOPROPANECARBOXAMIDE], the Ki turned out to be 17.9 nM.
